# In patent publication US20060159715A1, “Conjugate of fine porous particles with polymer molecules and the utilization thereof” (priority 2003, published 2006):
# Conditions: L-DOPA added after three-hour incubation in phosphate buffer; FIG. 5
# Text: Hydroquinone was supported on conjugate in the same manner as in Example 4 except that hydroquinone was used in place of pyrene. Hydroquinone and clay particles-supported hydroquinone were examined for the resistance to the oxidation of L-DOPA.
compound,measurement,value
"Oc1ccc(O)cc1 [hydroquinone, Hydroquinone]",antioxidation property against L-DOPA oxidation,completely lost antioxidation property
